Source: US9295732B2, “Conjugated TLR7 and/or TLR8 and TLR2 polycationic agonists” (CAYLA, priority 2013, dated 2016)
Values joined by “and” are separate entries in the source; they are usually repeats but may differ in a detail not shown here. Equal values may be shown once.

Key:
[1] = biological target: T1, human TLR7 (Homo sapiens, UniProt Q9NYK1); assay: HEK-Blue hTLR7 NF-κB/AP-1 SEAP reporter assay; assay type: cell-based; settings: HEK-Blue hTLR7 cells, 10 μg/mL to 10 pg/ml, 24 hours, OD at 655 nm, FIG. 1
T1 construct: host or cells: HEK293 (HEK-Blue™ hTLR7)
T1 sequence (Q9NYK1 27-1049): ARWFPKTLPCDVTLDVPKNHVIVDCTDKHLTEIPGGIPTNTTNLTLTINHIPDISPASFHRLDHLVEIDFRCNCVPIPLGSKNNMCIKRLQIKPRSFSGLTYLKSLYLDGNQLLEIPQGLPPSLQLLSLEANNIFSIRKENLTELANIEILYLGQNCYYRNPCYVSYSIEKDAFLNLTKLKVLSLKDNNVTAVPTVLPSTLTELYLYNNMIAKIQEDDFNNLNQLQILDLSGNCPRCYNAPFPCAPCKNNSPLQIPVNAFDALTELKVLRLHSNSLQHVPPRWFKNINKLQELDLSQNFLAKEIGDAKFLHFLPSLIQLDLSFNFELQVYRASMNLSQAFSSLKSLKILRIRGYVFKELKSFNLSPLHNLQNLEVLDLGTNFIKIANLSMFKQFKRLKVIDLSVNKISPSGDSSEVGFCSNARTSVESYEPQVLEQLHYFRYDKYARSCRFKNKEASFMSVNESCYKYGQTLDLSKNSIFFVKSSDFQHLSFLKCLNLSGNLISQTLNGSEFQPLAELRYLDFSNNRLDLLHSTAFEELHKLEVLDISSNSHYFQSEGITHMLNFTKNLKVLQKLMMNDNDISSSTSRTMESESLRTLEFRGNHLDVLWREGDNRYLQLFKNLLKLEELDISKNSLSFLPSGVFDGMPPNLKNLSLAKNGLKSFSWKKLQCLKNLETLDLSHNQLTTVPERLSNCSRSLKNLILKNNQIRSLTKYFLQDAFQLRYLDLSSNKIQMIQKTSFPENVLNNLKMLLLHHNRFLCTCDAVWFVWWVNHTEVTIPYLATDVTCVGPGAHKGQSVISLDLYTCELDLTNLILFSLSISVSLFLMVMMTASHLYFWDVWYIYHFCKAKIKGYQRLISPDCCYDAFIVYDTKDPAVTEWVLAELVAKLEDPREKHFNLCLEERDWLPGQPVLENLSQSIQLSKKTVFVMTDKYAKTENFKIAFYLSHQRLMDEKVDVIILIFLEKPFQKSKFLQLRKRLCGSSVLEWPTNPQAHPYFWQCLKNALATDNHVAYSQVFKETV
Description: (§1) Cell-based assays were carried out using TLR7 and TLR2 reporter cell lines (InvivoGen). The reporter cell lines are engineered HEK293 cells, a human embryonic kidney cell line (ATCC, CRL-1573) that stably express either murine TLR7 (HEK-Blue™ mTLR7) or human TLR7 (HEK-Blue™ hTLR7) or human TLR2 (HEK-Blue™ hTLR2) with an NF-κB-inducible secreted embryonic alkaline phosphatase (SEAP) as the reporter gene. The SEAP reporter gene is under the control of the NF-κB and AP-1-inducible promoter, which, upon treatment with a corresponding TLR ligand and activation of NF-κB and AP-1, induces the production of SEAP. Detection of SEAP is measured following culturing cells in HEK-Blue™ Detection media (InvivoGen). HEK-Blue™ Detection contains a SEAP substrate that when hydrolysed by SEAP produces a colorimetric change allowing for detection of SEAP as the protein is secreted. […] These assays were carried out using RAW-Blue™ Cells (InvivoGen), derived from RAW 264.7 mouse leukemic monocyte macrophage cell line (ATCC, CRL 2278) stably overexpressing a NF-B/AP-1 inducible SEAP reporter constructs.
(§2) To perform the assay, cells were seeded on 96 well microliter plates at 50,000 or 100,000 cells per well for HEK-Blue™ Cells and RAW-Blue™ Cells respectively, and cultured at 37° C. in the presence of the conjugated compounds The TLR7-TLR2 polyamine molecules were prepared as follows: First, stock solutions of the conjugated compounds of the invention were prepared in ethanol or water to a concentration of 10 mg/ml.
(§3) The working dilutions of the conjugated TLR7-TLR2 polyamine agonists made up in water or PBS were directly added to the reporter cell lines at a final concentration ranging from 10 μg/mL to 10 pg/ml and incubated at 37° C. for 24 hours. After 24 hours of incubation, the effect on reporter gene activity was determined by reading the OD at 655 nm using iMark™ Microplate Reader (BIO-RAD).

[2] = biological target: T2, murine TLR7 (Mus musculus, UniProt P58681); assay: HEK-Blue mTLR7 NF-κB/AP-1 SEAP reporter assay; assay type: cell-based; settings: HEK-Blue mTLR7 cells, 10 μg/mL to 10 pg/ml, 24 hours, OD at 655 nm, FIG. 2
T2 construct: host or cells: HEK293 (HEK-Blue™ mTLR7)
T2 sequence (P58681 27-1050): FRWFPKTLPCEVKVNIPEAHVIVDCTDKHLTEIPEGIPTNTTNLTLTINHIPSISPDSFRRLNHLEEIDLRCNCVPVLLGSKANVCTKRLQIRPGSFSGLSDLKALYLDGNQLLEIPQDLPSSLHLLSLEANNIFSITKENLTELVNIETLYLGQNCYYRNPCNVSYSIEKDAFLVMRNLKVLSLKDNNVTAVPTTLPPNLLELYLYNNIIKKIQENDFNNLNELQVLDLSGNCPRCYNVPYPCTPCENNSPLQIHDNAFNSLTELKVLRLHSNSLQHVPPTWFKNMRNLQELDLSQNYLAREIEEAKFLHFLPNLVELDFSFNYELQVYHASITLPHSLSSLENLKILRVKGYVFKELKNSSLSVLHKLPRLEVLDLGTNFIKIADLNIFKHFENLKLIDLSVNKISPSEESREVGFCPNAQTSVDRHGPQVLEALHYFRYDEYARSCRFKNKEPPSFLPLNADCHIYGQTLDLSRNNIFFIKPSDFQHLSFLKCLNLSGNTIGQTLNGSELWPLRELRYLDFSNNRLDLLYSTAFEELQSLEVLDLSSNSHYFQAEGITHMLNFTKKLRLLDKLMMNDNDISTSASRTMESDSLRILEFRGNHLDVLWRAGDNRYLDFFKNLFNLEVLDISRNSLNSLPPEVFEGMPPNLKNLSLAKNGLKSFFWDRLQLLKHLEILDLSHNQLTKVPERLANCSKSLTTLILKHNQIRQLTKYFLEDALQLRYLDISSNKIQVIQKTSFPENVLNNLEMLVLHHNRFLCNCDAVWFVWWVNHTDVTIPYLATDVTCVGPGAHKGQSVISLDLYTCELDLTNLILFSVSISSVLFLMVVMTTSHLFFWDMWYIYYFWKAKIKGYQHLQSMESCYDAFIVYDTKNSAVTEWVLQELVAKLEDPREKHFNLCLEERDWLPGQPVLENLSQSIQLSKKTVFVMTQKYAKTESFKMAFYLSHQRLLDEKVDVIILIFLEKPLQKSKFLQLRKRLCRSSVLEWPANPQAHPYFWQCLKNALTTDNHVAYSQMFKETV
Description: as §1, §2, §3

[3] = biological target: T3, human TLR2 (Homo sapiens, UniProt O60603); assay: HEK-Blue hTLR2 NF-κB/AP-1 SEAP reporter assay; assay type: cell-based; settings: HEK-Blue hTLR2 cells, 10 μg/mL to 10 pg/ml, 24 hours, OD at 655 nm, FIG. 3
T3 construct: host or cells: HEK293 (HEK-Blue™ hTLR2)
Description: as §1, §2, §3

[4] = system: endogenous TLR2 and TLR7 in RAW-Blue™ Cells; assay: RAW-Blue Cells NF-κB/AP-1 SEAP reporter assay; assay type: cell-based, mouse; settings: 24 hours, OD at 655 nm, FIG. 4
Description: as §1, §2, §3

[5] = system: plasmid DNA (pDNA); assay: Gel shift (mobility shift) assay of pDNA complexation; assay type: binding; settings: pDNA:molecule ratio 3:24 (w:w), 0.8% agarose gel, compared to pDNA alone
Description: Then, 10 μl of pDNA:TLR7-TLR2 polyamine molecule complexes and 2 μl of charge buffer were mixed and loaded into wells of a 0.8% agarose gel. Samples were migrated through the gel in TAE buffer under 135 voltage for 21 mins and the migration of the pDNA was visualized following ethidium bromide staining under UV light. The ability of TLR7-TLR2 polyamine molecules to complex/associate with the pDNA was identified by partial or complete retardation of the pDNA migration toward the anode in the gel compared to pDNA alone. […] Ethidium bromide intercalation of pDNA in complex with molecules allowed visualization of complexed pDNA as a smear in the wells of the gel.

[6] = Nanoparticle (lipoplex) size by dynamic light scattering; settings: 25° C., triplicate; for Mean Diameter: complexes with pDNA 3:24 (w:w), dynamic light scattering; for PDI: polydispersity index of complexes with pDNA 3:24 (w:w);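 on all read-outs here: lipoplexes of TLR7-TLR2 polyamine conjugates with plasmid DNA, formed over 30 min at room temperature in serum-free medium or 5% glucose, diameter in nm, PDI dimensionless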

T3 sequence (O60603 21-784): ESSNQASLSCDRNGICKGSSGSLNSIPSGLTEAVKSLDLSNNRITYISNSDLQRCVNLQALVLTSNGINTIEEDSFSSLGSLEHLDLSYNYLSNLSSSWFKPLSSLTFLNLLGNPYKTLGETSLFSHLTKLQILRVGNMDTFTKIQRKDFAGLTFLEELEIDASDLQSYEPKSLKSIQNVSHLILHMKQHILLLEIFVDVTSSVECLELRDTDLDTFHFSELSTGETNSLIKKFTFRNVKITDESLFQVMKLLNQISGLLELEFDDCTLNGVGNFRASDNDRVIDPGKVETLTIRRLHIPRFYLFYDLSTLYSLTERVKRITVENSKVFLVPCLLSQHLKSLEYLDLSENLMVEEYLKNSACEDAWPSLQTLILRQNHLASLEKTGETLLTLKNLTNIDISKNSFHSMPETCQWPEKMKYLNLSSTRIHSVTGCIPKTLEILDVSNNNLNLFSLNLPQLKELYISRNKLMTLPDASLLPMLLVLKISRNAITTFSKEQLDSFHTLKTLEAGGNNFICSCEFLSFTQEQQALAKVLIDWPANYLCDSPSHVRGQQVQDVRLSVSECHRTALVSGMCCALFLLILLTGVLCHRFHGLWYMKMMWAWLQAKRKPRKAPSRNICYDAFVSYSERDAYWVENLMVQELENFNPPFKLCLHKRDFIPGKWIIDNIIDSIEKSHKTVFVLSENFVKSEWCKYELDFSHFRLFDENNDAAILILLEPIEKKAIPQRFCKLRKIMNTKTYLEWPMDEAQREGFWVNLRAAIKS

Mean Diameter [6]	PDI [6]	Structure (SMILES)	ability to activate hTLR7 [1]	ability to activate mTLR7 [2]	ability to activate hTLR2 [3]	ability to activate endogenous TLR2 and TLR7 in RAW-Blue Cells [4]	ability to complex pDNA (retardation of pDNA migration in agarose gel) [5]
145.9 nm and 155.8 nm and 153.5 nm	0.193 and 0.176 and 0.158	CCCCCCCCCCCCCCCC(=O)OCC(CSC[C@H](N)C(=O)N[C@@H](CCCCNC(=O)CNC(=O)c1ccc(Cn2c(O)nc3c(N)nc(NCCCC)nc32)cc1)C(=O)NCCCNCCCCNCCCN)OC(=O)CCCCCCCCCCCCCCC (stereo partly drawn) [CL475, (6R,9S)-6,23-diamino-9-(4-(2-(4-((6-amino-2-(butylamino)-8-hydroxy-9H-purin-9-yl)methyl)benzamido)acetamido)butyl)-7,10-dioxo-4-thia-8,11,15,20-tetraazatrico sane-1,2-diyl dipalmitate]	activate hTLR7	activate mTLR7	activate hTLR2	activate endogenous TLR2 and TLR7	inability to migrate through an agarose gel
165.6 nm and 160.0 nm and 148.1 nm	0.255 and 0.241 and 0.23	CCCCCCCCCCCCCCCC(=O)OCC(CSC[C@H](N)C(=O)NCCCC[C@H](NC(=O)CNC(=O)c1ccc(Cn2c(O)nc3c(N)nc(NCCCC)nc32)cc1)C(=O)NCCCNCCCCNCCCN)OC(=O)CCCCCCCCCCCCCCC (stereo partly drawn) [CL487, (6R,13S)-6,27-diamino-13-(2-(4-((6-amino-2-(butylamino)-8-hydroxy-9H-purin-9-yl)methyl)benzamido)acetamido)-7,14-dioxo-4-thia-8,15,19,24-tetraazaheptacosane-1,2-diyl dipalmitate]	activate hTLR7	activate mTLR7	activate hTLR2	activate endogenous TLR2 and TLR7	inability to migrate through an agarose gel
–	–	CCCCCCCCCCCCCCCC(=O)OCC(CSC[C@H](N)C(=O)N[C@@H](CO)C(=O)N[C@@H](CCCCNC(=O)c1ccc(Cn2c(O)nc3c(N)nc(NCCCC)nc32)cc1)C(=O)N[C@@H](CCCCN)C(=O)N[C@@H](CCCCN)C(=O)N[C@@H](CCCCN)C(=O)O)OC(=O)CCCCCCCCCCCCCCC (stereo partly drawn) [CL533, (2S,5S,8S,11S,14S,17R)-17-amino-11-(4-(4-((6-amino-2-(butylamino)-8-hydroxy-9H-purin-9-yl)methyl)benzamido)butyl)-2,5,8-tris(4-aminobutyl)-14-(hydroxylmethyl)-4,7,10,13,16,24-hexaoxo-21-(palmitoyloxy)-23-oxa-19-thia-3,6,9,12,15-pentaazanonatria contan-1-oic acid]	activate hTLR7	activate mTLR7	activate hTLR2	activate endogenous TLR2 and TLR7	inability to migrate through an agarose gel
147.0 nm and 148.5 nm and 156.7 nm	0.185 and 0.193 and 0.210	CCCCCCCCCCCCCCCC(=O)OCC(CSC[C@H](N)C(=O)NCCCNCCCCNCCCN)OC(=O)CCCCCCCCCCCCCCC (some centres unmarked) [CL419]	–	–	–	–	–
–	–	CCCCCCCCCCCCCCCC(=O)N[C@@H](CSCC(COC(=O)CCCCCCCCCCCCCCC)OC(=O)CCCCCCCCCCCCCCC)C(=O)N[C@@H](CO)C(=O)N[C@@H](CCCCNC(=O)c1ccc(Cn2c(O)nc3c(N)nc(NCCCC)nc32)cc1)C(=O)N[C@@H](CCCCN)C(=O)N[C@@H](CCCCN)C(=O)N[C@@H](CCCCN)C(=O)O (stereo partly drawn) [CL537, (2S,5S,8S,11S,14S,17R)-11-(4-(4-((6-amino-2-(butylamino)-8-hydroxy-9H-purin-9-yl)methyl)benzamido)butyl)-2,5,8-tris(4-aminobutyl)-14-(hydroxymethyl)-4,7,10,13,16,24-hexaoxo-17-palmitamido-21-(palmitoyloxy)-23-oxa-19-thia-3,6,9,12,15-pentaazanonatria contan-1-oic acid]	activate hTLR7	activate mTLR7	activate hTLR2	activate endogenous TLR2 and TLR7	inability to migrate through an agarose gel
